Publication PMC11678778, “Anti-Inflammatory Properties of Novel 1,2-Benzothiazine Derivatives and Their Interaction with Phospholipid Model Membranes” (Membranes, 2024)

What was measured:
[1] = system: NHDF (normal human dermal fibroblast) cells; assay: MTT cytotoxicity assay; format: cell-based; details: NHDF cell cultures, 24 h incubation, mean ± SD
Experimental: NHDF (normal human dermal fibroblast) cells, sourced from the American Type Culture Collection (ATCC), were maintained in DMEM without phenol red, enhanced with 10% fetal bovine serum (FBS), 2 mM L-glutamine, and 25 μg/mL gentamicin. The cells were incubated under conditions of 5% CO2, at a temperature of 37 °C, and 95% humidity. We monitored the cells bi-weekly, utilizing or subculturing them once they reached over 70% confluence. For all experimental setups, cells were plated at a density of 10,000 cells per well and allowed to recover in a CO2 incubator for 24 h.
The compounds under investigation were dissolved in DMSO to achieve a final concentration of 10 mM and then stored at −20 °C. Lipopolysaccharide (LPS) from Escherichia coli (Sigma-Aldrich, Saint Louis, MO, USA; catalog no. L2630) was dissolved in distilled water to a concentration of […]. The stock solution of LPS was stored at −20 °C for up to 6 months. Final concentrations of LPS used in this study were 50 µg/mL. Prior to use, the solutions were thawed at room temperature. For each compound, 8 different concentrations in the range of 500–10 μM were prepared in the culture medium.
The cytotoxicity of the test compound was assessed using the MTT assay. After cell seeding and overnight incubation, the supernatant was removed, and the compounds were added at concentrations ranging from 500 to 10 µM. Control cells were treated with complete medium only, while cells treated with medium containing DMSO at the highest compound concentration were included as the solvent control. After the incubation period, the supernatant was removed, and 50 µL of a 1.0 mg/mL MTT solution was added to each well and incubated for 2 h at 37 °C. The medium was then removed, and 100 µL of DMSO was added to each well. Finally, absorbance was measured at 570 nm using a Multiskan GO spectrophotometer.
Cell viability was calculated according to Equation (1): (Ai − Am)/(Ac − Am) × 100(Ai − Am)/(Ac − Am) × 100(1) where Ai is the absorbance of the tested concentration, Am is the absorbance of the medium, and Ac is the absorbance of the control. Based on the cytotoxicity test results, the IC50 was calculated using a 4-point lognormal distribution with a Hill coefficient. Experiments were performed in triplicate.

[2] = ABTS radical scavenging assay; format: physicochemical; details: 30 min incubation; mean ± SD, n = 3
Experimental: The activity of ABTS (2,2′-azino-bis(3-ethylbenzothiazoline-6-sulphonic acid)) was assessed to evaluate the radical scavenging potential of the synthesized compounds. The ABTS reagent was generated by combining equal volumes of a 7 mM aqueous solution of ABTS and a 2.45 mM potassium persulfate solution. This mixture was then incubated in the dark at room temperature for 16 h. Following incubation, the solution was diluted with ethanol until the absorbance reached approximately 0.7 ± 0.05 at a wavelength of 734 nm. The stock solutions of the synthesized compounds in DMSO were serially diluted to obtain concentrations ranging from 500 μM to 10 μM in ethanol. The ABTS reagent was then treated with various concentrations of each compound and incubated in the dark at room temperature. After 30 min of incubation, the absorbance was measured at 734 nm, using ethanol as the blank control. Ascorbic acid served as the standard for comparison, and the IC50 values for the synthesized compounds were calculated using the following Equation (3):(3) %ABTS scavenging activity=Abscontrol−Abs sample/Abs (control)×100

[3] = DPPH radical scavenging assay; format: physicochemical; details: 30 min incubation, 37 °C; mean ± SD, n = 3
Experimental: The DPPH assay was conducted to assess the radical scavenging capabilities of the synthesized compounds. Stock solutions of the compounds were formulated in DMSO and subsequently diluted serially to achieve test concentrations ranging from 500 to 10 μM in ethanol. Each sample’s ethanolic DPPH solution was treated with the respective test concentrations and incubated at 37 °C. After a 30 min incubation period, the absorbance was measured at 517 nm, using ethanol as the blank control. Ascorbic acid served as the reference standard, and the IC50 values for the synthesized compounds were determined using the following Equation (2):(2) %DPPH scavenging activity=Abscontrol−Abs sample/Abs (control)×100

COX-1 = target: T1, COX-1 (Ovis aries, UniProt P05979); assay: Cyclooxygenase inhibition assay (colorimetric, peroxidase activity, TMPD oxidation); format: biochemical; details: incubation 2 min; mean ± SD
T1 construct: purchased
T1 sequence (P05979 25-600): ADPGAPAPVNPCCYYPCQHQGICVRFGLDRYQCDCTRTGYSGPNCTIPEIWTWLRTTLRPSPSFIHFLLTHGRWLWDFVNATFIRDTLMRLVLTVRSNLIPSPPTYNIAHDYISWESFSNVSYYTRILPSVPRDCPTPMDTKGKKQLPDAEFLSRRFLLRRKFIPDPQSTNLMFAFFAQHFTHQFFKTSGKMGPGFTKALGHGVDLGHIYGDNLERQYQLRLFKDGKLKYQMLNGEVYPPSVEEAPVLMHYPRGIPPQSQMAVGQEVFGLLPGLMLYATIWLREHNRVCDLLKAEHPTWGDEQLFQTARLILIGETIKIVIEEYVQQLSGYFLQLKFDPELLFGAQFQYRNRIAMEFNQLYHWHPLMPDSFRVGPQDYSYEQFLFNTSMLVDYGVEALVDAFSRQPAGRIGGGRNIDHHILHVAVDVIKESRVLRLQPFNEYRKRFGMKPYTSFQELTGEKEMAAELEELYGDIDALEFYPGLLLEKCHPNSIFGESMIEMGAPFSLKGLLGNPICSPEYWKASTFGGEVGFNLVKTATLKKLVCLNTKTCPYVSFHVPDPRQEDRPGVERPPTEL
Experimental: (§1) To conduct the cyclooxygenase inhibition assay, we utilized a kit from the manufacturer that contained 150 μL of assay buffer, 10 μL of heme, and 10 μL of either COX-1 or COX-2 enzyme. Each sample was prepared in triplicate, with the addition of 10–500 μM of the test compounds and […] of solvents such as methanol, ethanol, and dimethyl sulfoxide (DMSO). We then added 20 μL of N,N,N cent,N cent-tetramethyl-p-phenylenediamine (TMPD) to each well. Arachidonic acid was introduced to initiate the reaction, which was allowed to proceed for 2 min. Following the incubation period, the extent of TMPD oxidation was measured using the multiscan Go microplate reader at a wavelength of 590 nm (Thermo Fisher Scientific, Waltham, MA, USA).
Cyclooxygenase (COX) peroxidase activity was evaluated using a colorimetric assay. […] The incubation period was maintained at 2 min, following the manufacturer’s guidelines. […] We determined the concentrations of all compounds required for 50% inhibition of COX-1 and COX-2. IC50 values were then calculated, and the ratio of IC50 values for both cyclooxygenase isoforms allowed us to assess the selectivity of the tested structures for COX-1 and COX-2.

COX-2 = target: T2, COX-2 (Homo sapiens, UniProt P35354); assay: as above; format: biochemical; details: for IC50: incubation 2 min, mean ± SD; for Selectivity Ratio: (COX-2/COX-1): ratio of IC50 values
T2 construct: purchased
T2 sequence (P35354 18-604): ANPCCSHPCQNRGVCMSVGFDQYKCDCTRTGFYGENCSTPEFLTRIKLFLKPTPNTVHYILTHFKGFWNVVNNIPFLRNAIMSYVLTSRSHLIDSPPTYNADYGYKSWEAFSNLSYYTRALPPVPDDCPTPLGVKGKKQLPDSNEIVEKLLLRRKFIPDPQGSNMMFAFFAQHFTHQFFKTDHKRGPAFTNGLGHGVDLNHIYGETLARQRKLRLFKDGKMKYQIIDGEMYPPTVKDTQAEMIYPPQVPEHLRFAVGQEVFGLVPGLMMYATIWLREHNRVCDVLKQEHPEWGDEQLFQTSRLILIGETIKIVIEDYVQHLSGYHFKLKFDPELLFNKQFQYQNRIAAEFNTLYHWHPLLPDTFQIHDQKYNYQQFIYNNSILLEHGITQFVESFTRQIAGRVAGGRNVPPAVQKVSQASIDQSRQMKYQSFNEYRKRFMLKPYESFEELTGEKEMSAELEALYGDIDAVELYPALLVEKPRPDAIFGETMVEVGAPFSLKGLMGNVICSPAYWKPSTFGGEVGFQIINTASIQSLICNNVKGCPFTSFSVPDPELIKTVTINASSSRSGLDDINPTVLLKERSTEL
Experimental: as §1
Cyclooxygenase (COX) peroxidase activity was evaluated using a colorimetric assay. […] The incubation period was maintained at 2 min, following the manufacturer’s guidelines. […] IC50 values were then calculated, and the ratio of IC50 values for both cyclooxygenase isoforms allowed us to assess the selectivity of the tested structures for COX-1 and COX-2.

IL-6 = assay: Gene expression by real-time RT-PCR; format: cell-based, human; details: inflamed NHDF cells, 10 µM, 24 h
Experimental: (§2) The NHDF cells were treated according to the previously outlined procedure. The control and LPS groups were incubated separately in culture dishes containing DMEM, while the test compounds groups were placed in dishes with 10 µM BS23 and BS28, respectively. After a 24 h incubation at 37 °C in a 5% CO2 atmosphere, the NHDF cells were scraped from the bottom of the microplate using a rubber, and then they were centrifuged at 9000× g for 5 min. The pellet was washed with ice-cold PBS twice. RNA was isolated using a Total RNA Mini Plus kit (A&A Biotechnology, Gdańsk, Poland) followed by DNase I (Thermo Fisher Scientific, Waltham, MA, USA) treatment according to the producer’s instructions. cDNA synthesis was performed using a Fast Gene Scriptase II cDNA (Nippon Genetics Europe, Duren, Germany). RT-qPCR analyses were performed using the DyNAmo Flash SYBR Green qPCR Kit (Thermo Fisher Scientific, Waltham, MA, USA) and the CFX Connect Real-Time PCR Detection System (Bio-Rad, Hercules, CA, USA) . Relative gene expression was normalized to the reference gene, β-actin, using the 2^−ΔΔCT method. The primer sequences utilized in this study were as follows: IL-6: F, 5′-[…]-3′; R, 5′-[…]-3′; TNF-α: F, 5′-[…]-3′; R, 5′-[…]-3′; β-actin: F, 5′-[…]-3′; R, 5′-[…]-3′. All experiments were performed at least three times.

TNF-α = assay: Gene expression by real-time RT-PCR; format: cell-based, human; details: inflamed NHDF cells, 10 µM, 24 h
Experimental: as §2

[4] = system: NHDF cells exposed to LPS; assay: Inflammation model, MTT assay after LPS; format: cell-based, human; details: LPS 50 µg/mL 24 h, then compound 10, 50, 100 µM 24 h
Experimental: Cells seeded in 96-well plates were treated with 50 ug/mL LPS for 24 h for the MTT assay or 1 h for the DCF-DA assay. […] After this time, MTT and DCF-DA assays were performed according to the procedure described in Wiatrak et al.

SMILES	IC50 [1] [µM]	IC50 [2] [µM]	IC50 [3] [µM]	IC50 (COX-1) [µM]	IC50 (COX-2) [µM]	Selectivity Ratio: (COX-2/COX-1) (COX-2)	expression of IL-6 mRNA compared to the LPS group (IL-6)	expression of TNF-α mRNA compared to the LPS group (TNF-α)	cell viability after LPS then compound [4]
Cc1cnc(NC(=O)C2=C(O)c3ccccc3S(=O)(=O)N2C)s1 [meloxicam, reference compound]	174 ± 20.3	89.5 ± 1.5	> 500	–	–	–	–	–	–
O=C(C1=C(O)c2ccccc2S(=O)(=O)N1CCCN1CCN(c2ncccn2)CC1)c1ccc(Br)cc1 [BS30]	168 ± 30.4	88.3 ± 1.6	> 500	122 ± 3.4	59.2 ± 3.7	0.49	–	–	–
O=C1O[C@H]([C@@H](O)CO)C(O)=C1O [ascorbic acid, reference compound]	–	124 ± 2.3	218.3 ± 1.8	–	–	–	–	–	–
O=C(C1=C(O)c2ccccc2S(=O)(=O)N1CC(=O)N1CCN(c2ccccc2)CC1)c1ccc(Br)cc1 [BS28, 3-(4-Bromobenzoyl)-2-[2-(4-phenylpiperazin-1-yl)-2-oxoethyl]-4-hydroxy-2H-1,2-benzothiazine 1,1-dioxide]	180 ± 13.6	88.4 ± 1.9	> 500	95.9 ± 5.7	12.5 ± 1.9	0.13	markedly reduced	markedly reduced	–
Cc1ccc(C(=O)C2=C(O)c3ccccc3S(=O)(=O)N2CCCN2CCN(c3ccccn3)CC2)cc1 [BS25]	200 ± 20.9	75.3 ± 1.4	> 500	131 ± 7.5	62.6 ± 1.7	0.48	–	–	–
O=C(C1=C(O)c2ccccc2S(=O)(=O)N1CCCN1CCN(c2ncccn2)CC1)c1ccc(F)cc1 [BS27]	191 ± 12.5	83.3 ± 2.5	> 500	117 ± 4.3	25.6 ± 2	0.22	–	–	–
COc1ccc(C(=O)C2=C(O)c3ccccc3S(=O)(=O)N2CCCN2CCN(c3ncccn3)CC2)cc1 [BS24]	163 ± 15.7	63.2 ± 2.8	> 500	127 ± 3.6	26.3 ± 3.4	0.21	–	–	–
COc1ccc(C(=O)C2=C(O)c3ccccc3S(=O)(=O)N2CCCN2CCN(c3ccccn3)CC2)cc1 [BS23]	228 ± 28.1	54.2 ± 2.2	> 500	242 ± 4.2	13.2 ± 2.1	0.05	markedly reduced	markedly reduced	around 70 % of the value for untreated (control) cells
O=C(C1=C(O)c2ccccc2S(=O)(=O)N1CCCN1CCN(c2ccccn2)CC1)c1ccc(F)cc1 [BS26]	203 ± 22.9	83.7 ± 3.2	> 500	129 ± 9.1	18.2 ± 4.3	0.14	–	–	–
O=C(C1=C(O)c2ccccc2S(=O)(=O)N1CCCN1CCN(c2ccccn2)CC1)c1ccc(Br)cc1 [BS29]	233 ± 11.8	53.7 ± 1.7	> 500	125 ± 6.7	17.8 ± 2.1	0.14	–	–	–
